This passage reports IC50 results from patent US7566712B2, “Biaryl piperazinyl-pyridine analogues” (Neurogen Corporation, priority 2003, dated 2009).

The experiment concerns the target T1, human capsaicin receptor (Homo sapiens, UniProt Q8NER1).
T1 construct: pBK-CMV expression construct encoding the full length human capsaicin receptor; expressed in transfected cells
The experiment is described as follows: Calcium mobilization assay, determination of antagonist activity (Example 6). Format: cell-based. The note with it: Table II; determined as described in Example 6 (antagonist activity); "*" = 1 micromolar or less. In short, it runs like this:
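Antagonism measured as inhibition of capsaicin-evoked (final concentration = EC50, from an 8-point 1 nM–3 μM curve) Fluo-3 calcium signal in stable hVR1-HEK293 cells. Test compounds at 1–5 μM final, 0.5–6 h dark preincubation at room temperature. IC50 = concentration giving 50% reduction versus agonist-only response.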
On the technique in general: Calcium flux is commonly read through the fluorescence of an indicator in the cells.

T1 sequence (Q8NER1 whole entry): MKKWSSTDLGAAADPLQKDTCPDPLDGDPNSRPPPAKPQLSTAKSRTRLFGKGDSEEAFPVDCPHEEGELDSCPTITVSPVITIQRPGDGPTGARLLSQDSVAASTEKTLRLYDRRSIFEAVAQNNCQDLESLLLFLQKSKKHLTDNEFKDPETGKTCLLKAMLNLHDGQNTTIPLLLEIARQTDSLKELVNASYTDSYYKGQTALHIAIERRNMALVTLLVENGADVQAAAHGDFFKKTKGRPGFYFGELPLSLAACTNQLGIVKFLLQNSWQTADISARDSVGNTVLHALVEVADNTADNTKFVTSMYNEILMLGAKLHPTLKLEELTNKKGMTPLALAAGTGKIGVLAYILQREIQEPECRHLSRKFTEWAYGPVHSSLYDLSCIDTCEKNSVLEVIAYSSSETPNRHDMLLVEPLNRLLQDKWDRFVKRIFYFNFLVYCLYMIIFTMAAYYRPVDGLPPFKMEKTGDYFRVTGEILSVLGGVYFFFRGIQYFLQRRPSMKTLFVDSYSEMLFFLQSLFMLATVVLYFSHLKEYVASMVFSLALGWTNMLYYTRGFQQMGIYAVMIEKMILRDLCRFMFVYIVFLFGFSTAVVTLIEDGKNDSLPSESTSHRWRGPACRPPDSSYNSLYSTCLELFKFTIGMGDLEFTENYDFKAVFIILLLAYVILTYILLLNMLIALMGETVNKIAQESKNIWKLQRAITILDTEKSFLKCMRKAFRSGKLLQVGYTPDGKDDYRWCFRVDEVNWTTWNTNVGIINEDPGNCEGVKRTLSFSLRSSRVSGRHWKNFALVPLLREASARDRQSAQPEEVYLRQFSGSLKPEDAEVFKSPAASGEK

Usually IC50 stands for the point on the concentration scale where inhibition reaches its midpoint. For `C[C@@H]1CN(c2ncccc2Cl)CCN1c1cc(-c2cccc(C#N)c2)nc(N2CCCC2)n1` [Example 868, 3-{6-[(2R)-4-(3-chloropyridin-2-yl)-2-methylpiperazin-1-yl]-2-pyrrolidin-1-ylpyrimidin-4-yl}benzonitrile], the IC50 is not above 1000 nM.

With `Fc1ccc(-c2cc(N3CCN(c4ncccc4C(F)(F)F)CC3)nc(C3CCNCC3)n2)cc1Cl` [Example 871, 4-(3-chloro-4-fluorophenyl)-2-piperidin-4-yl-6-{4-[3-(trifluoromethyl)pyridin-2-yl]piperazin-1-yl}pyrimidine], the IC50 was not above 1000 nM.

Take `CCCN1CCC(c2nc(-c3ccc(F)c(Cl)c3)cc(N3CCN(c4ncccc4C(F)(F)F)CC3)n2)CC1` [Example 872, 4-(3-chloro-4-fluorophenyl)-2-(1-propylpiperidin-4-yl)-6-{4-[3-(trifluoromethyl)pyridin-2-yl]piperazin-1-yl}pyrimidine]: the IC50 was not above 1000 nM.

For the compound `Cc1ccc(C)n1-c1nc(-c2ccc(F)cc2)cc(N2CCN(c3ncccc3Cl)C[C@H]2C)n1` [Example 873, 4-((2R)-4-(3-chloropyridin-2-yl)-2-methylpiperazin-1-yl]-2-(2,5-dimethyl-1H-pyrrol-1-yl)-6-(4-fluorophenyl)pyrimidine], the IC50 was not above 1000 nM.

In the case of `Cc1ccc(C)n1-c1nc(-c2ccc(C#N)cc2)cc(N2CCN(c3ncccc3Cl)C[C@H]2C)n1` [Example 874, 4-[6-[(2R)-4-(3-chloropyridin-2-yl)-2-methypiperazin-1-yl]-2-(2,5-dimethyl-1H-pyrrol-1-yl)pyrimidin-4-yl]benzonitrile], the IC50 was not above 1000 nM.

On to `Cc1ccc(C)n1-c1nc(-c2ccc(F)cc2)cc(N2CCN(c3ncccc3C(F)(F)F)CC2)n1` [Example 875, 2-(2,5-dimethyl-1H-pyrrol-1-yl)-4-(4-fluorophenyl)-6-{4-[3-(trifluoromethyl)pyridin-2-yl]piperazin-1-yl}pyrimidine], for which the half-inhibitory concentration (IC50) was not above 1000 nM.

For the compound `Cc1ccc(C)n1-c1nc(-c2ccc(C#N)cc2)cc(N2CCN(c3ncccc3C(F)(F)F)CC2)n1` [Example 876, 4-(2-(2,5-dimethyl-1H-pyrrol-1-yl)-6-{4-[3-(trifluoromethyl)pyridin-2-yl]piperazin-1-yl}pyrimidin-4-yl)benzonitrie], the IC50 was not above 1000 nM.

Consider `Cc1cc(-c2cc(N3CCN(c4ncccc4C(F)(F)F)CC3)nc(-n3c(C)ccc3C)n2)ccc1F` [Example 877, 2-(2,5-dimethyl-1H-pyrrol-1-yl)-4-(4-fluoro-3-methylphenyl)-6-{4-[3-(trifluoromethyl)pyridin-2-yl]piperazin-1-yl}pyrimidine], for which the IC50 was not above 1000 nM.

For the compound `CN(C)/C=C\C(=O)c1nc(-c2ccc(F)c(F)c2)cc(N2CCN(c3ncccc3C(F)(F)F)CC2)n1` [Example 878, (2Z)-1-(4-(3,4-difluorophenyl)-6-{4-[3-(trifluoromethyl)pyridin-2-yl]piperazin-1-yl}pyrimidin-2-yl)-3-(dimethylamino)prop-2-en-1-one], the 50% inhibitory concentration (IC50) is not above 1000 nM.

In the case of `C[C@@H]1CN(c2ncccc2Cl)CCN1c1cc(-c2cncc(C#N)c2)nc(N2CCCC2)n1` [Example 879, 5-{6-[(2R)-4-(3-chloropyridin-2-yl)-2-methylpiperazin-1-yl]-2-pyrrolidin-1-ylpyrimidin-4-yl}nicotinonitrile], the IC50 is not above 1000 nM.

`CC1CCCN1c1nc(-c2cncc(C#N)c2)cc(N2CCN(c3ncccc3Cl)C[C@H]2C)n1` (stereo partly shown) [Example 880, 5-[6-[4-(3-chloropyridin-2-yl)-2-methylpiperazin-1-yl]-2-(2-methylpyrrolidin-1-yl)pyrimidin-4-yl]nicotinonitrile]: the IC50 is not above 1000 nM.

For the compound `CC1CCCN1c1nc(-c2cccnc2)cc(N2CCN(c3ncccc3Cl)C[C@H]2C)n1` (stereo partly shown) [Example 882, 4-[4-(3-chloropyridin-2-yl)-2-methylpiperazin-1-yl]-2-(2-methylpyrrolidin-1-yl)-6-pyridin-3-ylpyrimidine], the half-inhibitory concentration (IC50) was not above 1000 nM.

For `C[C@@H]1CN(c2ncccc2Cl)CCN1c1cc(-c2cccnc2)nc(N2CCCC2)n1` [Example 883, 4-[(2R)-4-(3-chloropyridin-2-yl)-2-methylpiperazin-1-yl]-6-pyridin-3-yl-2-pyrrolidin-1-ylpyrimidine], the IC50 was not above 1000 nM.

As to `O=C1CNCCN1c1nc(-c2ccc(F)c(Cl)c2)cc(N2CCN(c3ncccc3C(F)(F)F)CC2)n1` [Example 884, 1-(4-(3-chloro-4-f1uorophenyl)-6-{4-[3-(trifluoromethyl)pyridin-2-yl]piperazin-1-yl}pyrimidin-2-yl)piperazin-2-one], the IC50 is not above 1000 nM.

Take `CCCN1CCN(c2nc(-c3ccc(F)c(Cl)c3)cc(N3CCN(c4ncccc4C(F)(F)F)CC3)n2)C(=O)C1` [Example 885, 1-(4-(3-chloro-4-fluorophenyl)-6-{4-[3-(trifluoromethyl)pyridin-2-yl]piperazin-1-yl}pyrimidin-2-yl)-4-propylpiperazin-2-one]: the IC50 was not above 1000 nM.

Turning to `N#Cc1cncc(-c2cc(N3CCN(c4ncccc4C(F)(F)F)CC3)nc(N3CCCC3)n2)c1` [Example 886, 5-(2-pyrrolidin-1-yl-6-{4-[3-(trifluoromethyl)pyridin-2-yl]piperazin-1-yl}pyrimidin-4-yl)nicotinonitrile], the 50% inhibitory concentration (IC50) was not above 1000 nM.

Take `CC1CCCN1c1nc(-c2cncc(C#N)c2)cc(N2CCN(c3ncccc3C(F)(F)F)CC2)n1` (stereo not shown) [Example 887, 5-(2-(2-methylpyrrolidin-1-yl)-6-{4-[3-(trifluoromethyl)pyridin-2-yl]piperazin-1-yl}pyrimidin-4-yl)nicotinonitrile]: the IC50 is not above 1000 nM.

As to `CCCN1CCN(c2nc(-c3ccc(F)c(Cl)c3)cc(N3CCN(c4ncccc4C)CC3)n2)CC1` [Example 889, 4-(3-chloro-4-fluorophenyl)-6-[4-(3-methylpyridin-2-yl)piperazin-1-yl]-2-(4-propylpiperazin-1-yl)pyrimidine], the IC50 was not above 1000 nM.

As for `C[C@@H]1CN(c2ncccc2Cl)CCN1c1cc(-c2ccc(F)cc2)nc(N2CCN3CCC[C@H]3C2)n1` [Example 890, (8aS)-2-[4-[(2R)-4-(3-chloropyridin-2-yl)-2-methylpiperazin-1-yl]-6-(4-fluorophenyl)pyrimidin-2-yl]octahydropyrrolo[1,2-a]pyrazine], the IC50 is not above 1000 nM.

`Fc1ccc(-c2cc(N3CCN(c4ncccc4C(F)(F)F)CC3)nc(N3CCN4CCC[C@H]4C3)n2)cc1Cl` [Example 891, (8aS)-2-(4-(3-chloro-4-fluorophenyl)-6-{4-[3-(trifluoromethyl)pyridin-2-yl]piperazin-1-yl}pyrimidin-2-yl)octahydropyrrolo[1,2-a]pyrazine]: the IC50 was not above 1000 nM.

With `FC(F)(F)c1cccnc1N1CCN(c2cc(-c3cccc(Cl)c3)nc(N3CCN4CCC[C@H]4C3)n2)CC1` [Example 892, (8aS)-2-(4-(3-chlorophenyl)-6-{4-[3-(trifluoromethyl)pyridin-2-yl]piperazin-1-yl}pyrimidin-2-yl)octahydropyrrolo[1,2-a]pyrazine], the IC50 is not above 1000 nM.

Consider `CN(C)CCC(O)c1nc(-c2ccc(F)c(F)c2)cc(N2CCN(c3ncccc3C(F)(F)F)CC2)n1` (stereo not shown) [Example 893], for which the IC50 was not above 1000 nM.

On to `C[C@@H]1CN(c2ncccc2F)CCN1c1cc(-c2ccc(F)c(F)c2)nc(Cl)n1` [Example 894, 2-chloro-4-(3,4-difluorophenyl)-6-[(2R)-4-(3-fluoropyridin-2-yl)-2-methylpiperazin-1-yl]pyrimidine], for which the IC50 was not above 1000 nM.

For the compound `CC1CCCN1c1nc(-c2ccc(F)c(F)c2)cc(N2CCN(c3ncccc3F)C[C@H]2C)n1` (stereo partly shown) [Example 895, 4-(3,4-difluorophenyl)-6-[4-(3-fluoropyridin-2-yl)-2-methylpiperazin-1-yl]-2-(2-methylpyrrolidin-1-yl)pyrimidine], the IC50 was not above 1000 nM.

For the compound `C[C@@H]1CN(c2ncccc2F)CCN1c1cc(-c2ccc(F)c(F)c2)nc(N2CCCC2)n1` [Example 896, 4-(3,4-difluorophenyl)-6-[(2R)-4-(3-fluoropyridin-2-yl)-2-methylpiperazin-1-yl]-2-pyrrolidin-1-ylpyrimidine], the half-inhibitory concentration (IC50) was not above 1000 nM.

As to `C[C@@H]1CN(c2ncccc2F)CCN1c1cc(-c2ccc(F)c(F)c2)nc(N2CCOCC2)n1` [Example 897, 4-{4-(3,4-difluorophenyl)-6-[(2R)-4-(3-fluoropyridin-2-yl)-2-methylpiperazin-1-yl]pyrimidin-2-yl}morpholine], the IC50 is not above 1000 nM.

As to `Cc1cc(-c2cc(N3CCN(c4ncccc4Cl)C[C@@H]3C)nc(Cl)n2)ccc1F` [Example 898, 2-chloro-4-[(2S)-4-(3-chloropyridin-2-yl)-2-methylpiperazin-1-yl]-6-(4-fluoro-3-methylphenyl)pyrimidine], the IC50 is not above 1000 nM.

As for `Cc1cc(-c2cc(N3CCN(c4ncccc4Cl)C[C@@H]3C)nc(N3CCCC3)n2)ccc1F` [Example 902, 4-[(2S)-4-(3-chloropyridin-2-yl)-2-methylpiperazin-1-yl]-6-(4-fluoro-3-methylphenyl)-2-pyrrolidin-1-ylpyrimidine], the concentration for half-maximal inhibition (IC50) was not above 1000 nM.

Regarding `Cc1cc(-c2cc(N3CCN(c4ncccc4Cl)C[C@@H]3C)nc(N3CCOCC3)n2)ccc1F` [Example 904, 4-[4-[(2S)-4-(3-chloropyridin-2-yl)-2-methylpiperazin-1-yl]-6-(4-fluoro-3-methylphenyl)pyrimidin-2-yl]morpholine], the IC50 is not above 1000 nM.

Take `Cc1cc(-c2cc(N3CCN(c4ncccc4Cl)C[C@H]3C)nc(N(C)C(C)CO)n2)ccc1F` (stereo partly shown) [Example 905, 2-[[4-[4-(3-chloropyridin-2-yl)-2-methylpiperazin-1-yl]-6-(4-fluoro-3-methylphenyl)pyrimidin-2-yl](methyl)amino]propan-1-ol]: the IC50 is not above 1000 nM.

`C[C@@H]1CN(c2nccnc2Cl)CCN1c1nc(Cl)cc(-c2ccc(F)c(Cl)c2)n1` [Example 906, 4-chloro-6-(3-ohloro-4-fluorophenyl)-2-[4-(3-chloropyrazin-2-yl)-2-methylpiperazin-1-yl]pyrimidine]: the IC50 is not above 1000 nM.
